Biological target: T1, IRAK4 (Homo sapiens, UniProt Q9NWZ3)
T1 sequence (Q9NWZ3 1-460): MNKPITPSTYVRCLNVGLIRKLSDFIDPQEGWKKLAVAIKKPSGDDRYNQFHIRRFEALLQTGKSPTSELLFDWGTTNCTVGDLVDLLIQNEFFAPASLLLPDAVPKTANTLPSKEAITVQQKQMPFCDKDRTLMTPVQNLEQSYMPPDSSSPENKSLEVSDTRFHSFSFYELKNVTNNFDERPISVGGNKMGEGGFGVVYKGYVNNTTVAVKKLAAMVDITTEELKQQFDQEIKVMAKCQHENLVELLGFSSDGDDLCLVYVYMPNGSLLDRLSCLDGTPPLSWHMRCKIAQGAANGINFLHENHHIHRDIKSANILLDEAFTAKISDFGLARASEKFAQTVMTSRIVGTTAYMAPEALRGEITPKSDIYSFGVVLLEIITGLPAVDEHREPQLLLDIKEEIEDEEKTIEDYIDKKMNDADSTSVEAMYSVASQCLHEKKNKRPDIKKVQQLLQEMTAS
Experiment: Degradation of IRAK4 in THP1 cells, Western blot
Type: cell-based
Design: Degradation of IRAK4 in THP1 by compound; host or cells: THP-1
Details: THP-1 cells, 24 hours of incubation; for DC50: IRAK4 protein by Western blot, read-out: DC50; for Dmax: maximum degradation rate, read-out: Dmax
Outline: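 THP1 cells treated 24 h, lysed; lysates normalised by BCA, 40 μg protein per lane on 10% SDS-PAGE, anti-IRAK4 Western blot with chemiluminescence detection.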

SMILES	DC50 [µM]	Dmax [%]
NC(=O)c1nn(-c2ccc(N3CCN(C4CCN(c5ccc(C(=O)NC6CCC(=O)NC6=O)cc5F)CC4)CC3)cc2)cc1NC(=O)c1cccc(C(F)(F)F)n1 (stereo not drawn) [Compound A378, 1-(4-{4-[1-(4-{[(2,6-Dioxopiperidin-3-yl)amino]carbonyl}-2-fluorophenyl)piperidin-4-yl]piperazin-1-yl}phenyl)-4-({[6-(trifluoromethyl)pyridin-2-yl]carbonyl}amino)pyrazole-3-carboxamide]	< 0.1	> 60
NC(=O)c1nn(-c2ccc(N3CCN(C4CCN(c5ccc(C(=O)NC6CCC(=O)NC6=O)nc5)CC4)CC3)cc2)cc1NC(=O)c1cccc(C(F)(F)F)n1 (stereo not drawn) [Compound A379, N-(3-Carbamoyl-1-(4-(4-(1-(6-((2,6-dioxopiperidin-3-yl)carbamoyl)pyridin-3-yl)piperidin-4-yl)piperazin-1-yl)phenyl)-1H-pyrazol-4-yl)-6-(trifluoromethyl)picolinamide]	< 0.1	> 60
Cn1c(=O)n(C2CCC(=O)NC2=O)c2cccc(N3CCC(CN4CCN(C5CCC(n6cc(NC(=O)c7cccc(C(F)(F)F)n7)c(C(N)=O)n6)CC5)CC4)CC3)c21 (stereo not drawn) [Compound A380]	< 0.1	> 60
N#Cc1cccc(C(=O)Nc2cn(-c3ccc(N4CCN(CC5CCN(c6ccc(NC7CCC(=O)NC7=O)cc6F)CC5)CC4)cc3)nc2C(N)=O)n1 (stereo not drawn) [Compound A384, N-(3-Carbamoyl-1-(4-(4-((1-(4-((2,6-dioxopiperidin-3-yl)amino)-2-fluorophenyl)piperidin-4-yl)methyl)piperazin-1-yl)phenyl)-1H-pyrazol-4-yl)-6-cyanopicolinamide]	> 1	< 40
CC(C)(O)c1nn(-c2ccc(N3CCN(CC4CCN(c5ccc(NC6CCC(=O)NC6=O)cc5F)CC4)CC3)cc2)cc1NC(=O)c1cncc(C#N)c1 (stereo not drawn) [Compound A385, 5-Cyano-N-(1-(4-(4-((1-(4-((2,6-dioxopiperidin-3-yl)amino)-2-fluorophenyl)piperidin-4-yl)methyl)piperazin-1-yl)phenyl)-3-(2-hydroxypropan-2-yl)-1H-pyrazol-4-yl)nicotinamide]	> 1	< 40
CC(C)(O)c1nn(-c2ccc(N3CCN(CC4CCN(c5ccc(NC6CCC(=O)NC6=O)cc5F)CC4)CC3)cc2)cc1NC(=O)c1cccc(C#N)n1 (stereo not drawn) [Compound A386, 6-Cyano-N-(1-(4-(4-((1-(4-((2,6-dioxopiperidin-3-yl)amino)-2-fluorophenyl)piperidin-4-yl)methyl)piperazin-1-yl)phenyl)-3-(2-hydroxypropan-2-yl)-1H-pyrazol-4-yl)picolinamide]	> 1	< 40
N#Cc1ccnc(C(=O)Nc2cn(-c3ccc(N4CCN(C5CCN(c6ccc(NC7CCC(=O)NC7=O)cc6F)CC5)CC4)cc3)nc2C(N)=O)c1 (stereo not drawn) [Compound A387, N-(3-Carbamoyl-1-(4-(4-(1-(4-((2,6-Dioxopiperidin-3-yl)amino)-2-fluorophenyl)piperidin-4-yl)piperazin-1-yl)phenyl)-1H-pyrazol-4-yl)-4-cyanopicolinamide]	> 1	< 40
N#Cc1cccc(C(=O)Nc2cn(-c3ccc(N4CCN(C5CCN(c6ccc(NC7CCC(=O)NC7=O)cc6F)CC5)CC4)cc3)nc2C(N)=O)n1 (stereo not drawn) [Compound A388, N-(3-Carbamoyl-1-(4-(4-(1-(4-((2,6-Dioxopiperidin-3-yl)amino)-2-fluorophenyl)piperidin-4-yl)piperazin-1-yl)phenyl)-1H-pyrazol-4-yl)-6-cyanopicolinamide]	> 1	< 40
CC(C)(O)c1nn(-c2ccc(N3CCN(C4CCN(c5ccc(NC6CCC(=O)NC6=O)cc5F)CC4)CC3)cc2)cc1NC(=O)c1cncc(C#N)c1 (stereo not drawn) [Compound A389, 5-Cyano-N-(1-(4-(4-(1-(4-((2,6-dioxopiperidin-3-yl)amino)-2-fluorophenyl)piperidin-4-yl)piperazin-1-yl)phenyl)-3-(2-hydroxypropan-2-yl)-1H-pyrazol-4-yl)nicotinamide]	> 1	< 40

Source: patent EP4763839A1 (Pamplona Therapeutics (Shenzhen) Co., Ltd., priority 2023, dated 2025)
